Reference: ChEMBL document CHEMBL3108733, “Design, synthesis, and evaluation of hydroxamic acid derivatives as promising agents for the management of Chagas disease” (J Med Chem, 2014)
Active and inactive are the calls of the source. No cut-off for these calls is given here.

Legend:
[1] = Inhibition of Trypanosoma cruzi recombinant carbonic anhydrase-mediated CO2 hydration by stopped-flow assay
Carbonic anhydrase 2 = Carbonic anhydrase 2 (Homo sapiens, UniProt P00918); assay: Inhibition of human recombinant carbonic anhydrase-2-mediated CO2 hydration by stopped-flow assay
Carbonic anhydrase 1 = Carbonic anhydrase 1 (Homo sapiens, UniProt P00915); assay: Inhibition of human recombinant carbonic anhydrase-1-mediated CO2 hydration by stopped-flow assay
Sequence of Carbonic anhydrase 1 (P00915 whole entry): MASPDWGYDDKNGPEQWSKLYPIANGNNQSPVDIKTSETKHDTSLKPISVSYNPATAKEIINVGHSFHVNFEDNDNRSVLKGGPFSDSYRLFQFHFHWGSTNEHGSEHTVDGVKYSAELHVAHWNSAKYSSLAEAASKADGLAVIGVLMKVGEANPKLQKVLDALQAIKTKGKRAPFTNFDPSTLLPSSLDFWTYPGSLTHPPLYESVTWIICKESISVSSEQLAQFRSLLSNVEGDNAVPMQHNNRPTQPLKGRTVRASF

Trypanosoma cruzi [2] = assay: Trypanocidal activity against Trypanosoma cruzi Y infected in BALB/c mouse assessed as mouse survival at 100 mg/kg treated from day 2 to day 9 post-infection; assay type: functional
Trypanosoma cruzi [3] = assay: Antitrypanosomal activity against Trypanosoma cruzi Y epimastigotes assessed as growth inhibition at 32 uM after 5 days by Neubauer chamber counting analysis relative to control; assay type: functional
Trypanosoma cruzi [4] = assay: Inhibition of MMP9 in Trypanosoma cruzi Y epimastigotes assessed as effect on protein level at 32 uM after 5 days by Western blotting analysis
Trypanosoma cruzi [5] = assay: Antitrypanosomal activity against Trypanosoma cruzi Y epimastigotes after 5 days by resazurin dye-based assay; conditions: 120 h
Trypanosoma cruzi [6] = assay: Antitrypanosomal activity against Trypanosoma cruzi Dm28c epimastigotes after 5 days by resazurin dye-based assay; conditions: 120 h
Trypanosoma cruzi [7] = assay: Antitrypanosomal activity against Trypanosoma cruzi Y infected in BALB/c mouse peritoneal macrophages assessed as reduction of parasite burden after 48 hrs by Giemsa staining-based Neubauer chamber counting analysis
Trypanosoma cruzi [8] = conditions: Y, 16 uM
Description: Inhibition of MMP9 in Trypanosoma cruzi Y epimastigotes assessed as effect on protein level at 16 uM after 5 days by Western blotting analysis

Trypanosoma cruzi [9] = assay: Trypanocidal activity against Trypanosoma cruzi Y infected in BALB/c mouse assessed as reduction in parasitemia at 25 mg/kg treated from day 2 to day 9 post-infection measured on day 6 post-infection; assay type: functional, organism-based; design: dose 25 mg/kg
Trypanosoma cruzi [10] = assay: Antitrypanosomal activity against Trypanosoma cruzi Y trypomastigotes after 48 hrs by Neubauer chamber counting analysis
Trypanosoma cruzi [11] = assay: Antitrypanosomal activity against Trypanosoma cruzi Y infected in BALB/c mouse peritoneal macrophages assessed as decrease in trypomastigotes release at 16 uM after 120 hrs by Giemsa staining-based Neubauer chamber counting analysis; assay type: functional, organism-based
Trypanosoma cruzi [12] = assay: Trypanocidal activity against Trypanosoma cruzi Y infected in BALB/c mouse assessed as mouse survival at 25 mg/kg treated from day 2 to day 9 post-infection; assay type: functional
Trypanosoma cruzi [13] = assay: Antitrypanosomal activity against Trypanosoma cruzi Dm28c trypomastigotes after 48 hrs by Neubauer chamber counting analysis
[14] = Cytotoxicity against BALB/c mouse peritoneal macrophages after 24 hrs by MTT/LDH assay; assay type: cell-based, Peritoneal macrophage cell
Trypanosoma cruzi [15] = assay: Antitrypanosomal activity against Trypanosoma cruzi Y infected in human THP1 cells assessed as decrease in intracellular amastigotes at 2 uM after 48 hrs by Giemsa staining-based Neubauer chamber counting analysis; assay type: functional, organism-based; conditions: THP-1
Trypanosoma cruzi [16] = assay: Antitrypanosomal activity against Trypanosoma cruzi Dm28c trypomastigotes at 16 uM after 48 hrs by Neubauer chamber counting analysis relative to control; assay type: functional
Trypanosoma cruzi [17] = conditions: Y, 32 to 64 uM
Description: Inhibition of metallopeptidase in Trypanosoma cruzi Y epimastigotes at 32 to 64 uM after 12 hrs by gelatin zymography assay

Trypanosoma cruzi [18] = assay: Antitrypanosomal activity against Trypanosoma cruzi Y infected in human THP1 cells assessed as reduction of parasite burden at 32 uM after 48 hrs by Giemsa staining-based Neubauer chamber counting analysis relative to control; assay type: functional, THP-1; design: scale not given: the % may be the effect or the level left
Trypanosoma cruzi [19] = assay: Antitrypanosomal activity against Trypanosoma cruzi Y trypomastigotes at 16 uM after 48 hrs by Neubauer chamber counting analysis relative to control; assay type: functional
Trypanosoma cruzi [20] = conditions: Y, 32 to 64 uM; remark: listed apart in the source
Description: Inhibition of cysteine peptidase in Trypanosoma cruzi Y epimastigotes at 32 to 64 uM after 12 hrs by gelatin zymography assay

Trypanosoma cruzi [21] = assay: Trypanocidal activity against Trypanosoma cruzi Y infected in BALB/c mouse assessed as reduction in parasitemia at 25 mg/kg treated from day 2 to day 9 post-infection measured on day 9 post-infection; assay type: functional, organism-based; design: dose 25 mg/kg
Trypanosoma cruzi [22] = assay: Antitrypanosomal activity against Trypanosoma cruzi Y infected in BALB/c mouse peritoneal macrophages assessed as reduction of parasite burden at 32 uM after 48 hrs by Giemsa staining-based Neubauer chamber counting analysis relative to control; assay type: functional; design: scale not given: the % may be the effect or the level left
[23] = Cytotoxicity against BALB/c mouse peritoneal macrophages after 48 hrs by MTT/LDH assay; assay type: cell-based, Peritoneal macrophage cell
Trypanosoma cruzi [24] = assay: Antitrypanosomal activity against Trypanosoma cruzi Y infected in human THP1 cells assessed as reduction of parasite burden after 48 hrs by Giemsa staining-based Neubauer chamber counting analysis; conditions: THP-1, 48 h

What does the source list for `CCOc1ccccc1C1=NOC(C(=O)NN)C1` (centres undefined)?
Ki [1]: > 100000 nM; Ki (Carbonic anhydrase 2): > 100000 nM; Ki (Carbonic anhydrase 1): > 100000 nM

For `CC1(C(=O)NO)CC(c2ccccc2F)=NO1` (centres undefined), which Ki [1] is on record?
The Ki was 141 nM.

With `O=C(Cn1ccnc1[N+](=O)[O-])NCc1ccccc1` [BENZNIDAZOLE] as the compound, how does the Survival (Trypanosoma cruzi [2]) read?
Its Survival is 25 days.

What about the “growth inhibition (GI)” value (Trypanosoma cruzi [3]) of the same compound?
The value was “Active”.

Which Ki [1] does the source give for `CC1(C(=O)NO)CC(c2cccc(F)c2)=NO1` (centres undefined) here?
The Ki was 182 nM.

Which Ki [1] does the source give for `O=C(NO)C1CC(c2ccc(Cl)cc2)=NO1` (centres undefined) here?
Its Ki is 189 nM.

What about the “growth inhibition (GI)” value (Trypanosoma cruzi [3]) of the same compound?
Its value is “Active”.

For `CCOc1ccccc1C1=NOC(C(=O)NO)C1` (centres undefined), which Ki [1] is on record?
The Ki was 94.1 nM.

What about the “growth inhibition (GI)” value (Trypanosoma cruzi [3]) of the same compound?
Its value is “Active”.

What does the source list for `CCOc1ccc(C2=NOC(C(=O)NN)C2)cc1` (centres undefined)?
Ki [1]: > 100000 nM; Ki (Carbonic anhydrase 2): > 100000 nM; Ki (Carbonic anhydrase 1): > 100000 nM

Which inhibition (Trypanosoma cruzi [4]) does the source give for `C[C@H]1c2cccc(O)c2C(=O)C2=C(O)[C@]3(O)C(=O)C(C(N)=O)=C(O)[C@@H](N(C)C)[C@@H]3[C@@H](O)[C@@H]21` here?
The inhibition was “inactive”.

Which Ki [1] does the source give for `CC1(C(=O)NO)CC(c2cccc(Cl)c2)=NO1` (centres undefined) here?
Its Ki is 365 nM.

And the “growth inhibition (GI)” value (Trypanosoma cruzi [3])?
Its value is “inactive”.

With `CC1(C(=O)NO)CC(c2cccc(Br)c2)=NO1` (centres undefined) as the compound, how does the Ki [1] read?
Its Ki is 615 nM.

And the “growth inhibition (GI)” value (Trypanosoma cruzi [3])?
Its value is “inactive”.

With `O=C(NO)C1CC(c2cccc(Cl)c2)=NO1` (centres undefined) as the compound, how does the Ki [1] read?
Its Ki is 267 nM.

What about the “growth inhibition (GI)” value (Trypanosoma cruzi [3]) of the same compound?
Its value is “Active”.

For `CCOc1ccc(C2=NOC(C(=O)NO)C2)cc1` (centres undefined), which Ki [1] is on record?
The Ki was 71.3 nM.

What about the “growth inhibition (GI)” value (Trypanosoma cruzi [3]) of the same compound?
Its value is “Active”.

Which Ki [1] does the source give for `O=C(NO)C1CC(c2ccccc2)=NO1` (centres undefined) here?
Its Ki is 428 nM.

And the “growth inhibition (GI)” value (Trypanosoma cruzi [3])?
Its value is “inactive”.

Which IC50 (Trypanosoma cruzi [5]) does the source give for `O=C(NO)C1CC(c2ccc(OCc3ccccc3)cc2)=NO1` (centres undefined) here?
The IC50 was 7000 nM.

And the IC50 (Trypanosoma cruzi [6])?
Its IC50 is 10400 nM.

What about the Ki [1] of the same compound?
The Ki was 39.8 nM.

What about the IC50 (Trypanosoma cruzi [7]) of the same compound?
Its IC50 is 9100 nM.

And the inhibition (Trypanosoma cruzi [8])?
The inhibition was “Active”.

And the Activity (Trypanosoma cruzi [9])?
The Activity was “inactive”.

What about the IC50 (Trypanosoma cruzi [10]) of the same compound?
The IC50 was 3500 nM.

And the Activity (Trypanosoma cruzi [11])?
The Activity was “Active”.

What about the Survival (Trypanosoma cruzi [12]) of the same compound?
The Survival was 25 days.

What about the IC50 (Trypanosoma cruzi [13]) of the same compound?
Its IC50 is 5900 nM.

And the CC50 at 24 h [14]?
Its CC50 at 24 h is 92000 nM.

And the Activity (Trypanosoma cruzi [15])?
Its Activity is “Active”.

What about the Activity (Trypanosoma cruzi [16]) of the same compound?
Its Activity is 100%.

What about the inhibition (Trypanosoma cruzi [17]) of the same compound?
Its inhibition is “Active”.

What about the Activity (Trypanosoma cruzi [18]) of the same compound?
Its Activity is 100%.

And the Activity (Trypanosoma cruzi [19])?
Its Activity is 100%.

What about the inhibition of growth at 32 µM (Trypanosoma cruzi [3]; 120 h, read-out: GI) of the same compound?
Its inhibition of growth at 32 µM is 100%.

What about the inhibition (Trypanosoma cruzi [20]) of the same compound?
The inhibition was “Active”.

What about the Activity (Trypanosoma cruzi [21]) of the same compound?
Its Activity is “Active”.

And the Activity (Trypanosoma cruzi [22])?
The Activity was 5%.

What about the CC50 at 48 h [23] of the same compound?
The CC50 at 48 h was 64000 nM.

What about the IC50 (Trypanosoma cruzi [24]) of the same compound?
Its IC50 is < 1000 nM.

For `O=C(NO)C1CC(c2ccccc2Cl)=NO1` (centres undefined), which Ki [1] is on record?
The Ki was 263 nM.

And the “growth inhibition (GI)” value (Trypanosoma cruzi [3])?
Its value is “Active”.
